Test results from patent publication US10865176B2, “Small molecule modulators of microRNA-34a” (The Chinese University of Hong Kong, priority 2012, dated 2020).
Marks after values point to notes of the source that are not given here.

Legend:
miR-34a [1] = assay: qRT-PCR of primary and mature miR-34a in HCC cells; type: cell-based, human; settings: HCC cells (HepG2, FIG. 4B)
Method: (§1) Total RNA from cell cultures and HCC xenograft tumors were extracted using Trizol (Invitrogen) according to manufacturer's protocols. Total RNAs were dissolved into nuclease-free ddH2O. For protein extraction, cells and HCC xenograft tumors were lysed in 1×RIPA buffer with 1 mM PMSF and 1× complete protease inhibitor cocktail (Roche, Indianapolis, Ind.). Both RNA and protein were stored at −80° C.
(§2) Total RNA was reversely transcribed into cDNAs using High Capacity cDNA Reverse Transcription Kit (Applied Biosystems, Foster city, CA, USA) and nude RT kit (Invitrogen) individually. qRT-PCR was performed using SYBR Green PCR master mix (TaKaRa, Dalian, China). GAPDH was used as an endogenous control. For measuring miR-34a expression level, qPCR was performed by using SYBR Green PCR master mixture (Invitrogen) and U6 was used as the internal control. All samples were normalized to internal controls and fold changes were calculated by relative quantification (2^−ΔΔct).

miR-34a [2] = assay: miR-34a reporter luciferase assay in Huh7 cells; type: cell-based, human
Method: The pMIR-REPORT™ luciferase plasmid (1 μg; Ambion) was sequentially double digested with Sac I and Hind III (10 units each, 50 μL reaction; NEB) and was gel purified. Double stranded insert DNA encoding the miR-34a binding site was synthesized through standard oligonucleotide synthesis methods. The sequences used were Forward: 5′z […]-3′ (SEQ ID NO:1) and Reverse: 5′: […]-3′ (SEQ ID NO:2). The insert was hybridized (heated to 95° C., and cooled to 4° C. over 30 min, then held at 4° C. for 60 min) and ligated with T4 ligase (200 units, 10 μL reaction, 1:10 vector/insert ratio; NEB) into the digested pMIR-REPORT™ luciferase vector. Positive colonies were selected by PCR colony screens, and the construction of the pMIR-REPORT™-miR-34a vector was confirmed by double enzyme digestion with NheI, MluI and Nhe I, Hind III (NEB). The luciferase reporter vector containing the miR-34a promoter was kindly provided by Prof. Mendell J T from Johns Hopkins University (21).
Huh7 cells were seeded into 96-well plates 12 h prior to transfection. MiR-34a reporter and the control vector were respectively co-transfected with Renilla luciferase pRL-SV40 into Huh7 cells. All transfections were performed in triplicate. The cells were incubated at 37° C. for 4 h followed by the replacement of transfection media with standard DMEM growth media with 10 μM of the natural products library (NPL) compounds (Tim Tec; 0.1% DMSO final concentration). This library contains 640 compounds including natural products and their derivatives. After 48 h of incubation, the media was removed and cells were lysed and the luciferase signals were measured by luciferase assay as described below.
MiR-34a reporter, the luciferase reporter vector containing miR-34a promoter and the control vectors were transfected into HCC cells 12 h before compound treatment. The Renilla luciferase vector pRL-SV40 was co-transfected as an internal control. HCC cells were then treated with compound for 48-72 h. The luciferase activity was measured by Dual Luciferase Reporter Assay (Promega) with a Wallac VICTOR^3V luminometer. The ratio of firefly luciferase to Renilla expression was calculated for each of the triplicates.

[3] = HepG2 xenograft model, survival, body weight and side effects
Method: 5×10^6 HepG2 cells were suspended in 100 μl serum-free medium and subcutaneously (s.c.) inoculated into the dorsal flanks of nude mice. When tumors reached 5-10 mm in diameter, mice were randomly divided into 4 groups (n=5). […] Vehicle alone and Sorafenib were used as the negative and positive control respectively. Tumor volumes and body weight were measured once every two days. Tumor volume was calculated as [(Length×Width×Height)±2]. Treatment was continued for 24 d. Finally, all mice were sacrificed and tumors were excised. Tumor weight was recorded.

Cyclin D1 and Bcl-2 = assay: qRT-PCR of Cyclin D1 and Bcl-2 in xenografted tumors; type: in vivo, nude mice; settings: excised tumors after 24 d gavage
Method: as §1, §2
(§3) Tumor volume was calculated as [(Length×Width×Height)[…]]. Treatment was continued for 24 d. Finally, all mice were sacrificed and tumors were excised. Tumor weight was recorded.

miR-34a [4] = assay: qRT-PCR of pri-miR-34a and miR-34a in xenografted tumors; type: in vivo, nude mice; settings: excised tumors after 24 d gavage
Method: as §1, §2, §3

HepG2 xenografted tumor = assay: HepG2 xenografted nude mice model, tumor growth; type: in vivo; settings: 50 mg/kg, gavage once every two days
Method: as §3

O=c1[nH]cc(F)c(=O)[nH]1 [5-Fluorouracil, reference compound]
miR-34a expression after chemotherapeutic drugs (miR-34a [1]): no effect

COc1ccc(-c2cc(=O)c3c(O)cc(O)cc3o2)cc1 [Acacetin, 5,7-dihydroxy-4′-methoxyflavone]
function as miR-34a activator, re-assayed in triplicate with miR-34a reporter system (miR-34a [2]): functions as the miR-34a activators are confirmed

N.N.[Cl][Pt][Cl] [Cisplatin, reference compound]
miR-34a expression after chemotherapeutic drugs (miR-34a [1]): no effect

COc1cccc2c1C(=O)c1c(O)c3c(c(O)c1C2=O)C[C@@](O)(C(=O)CO)C[C@@H]3O[C@H]1C[C@H](N)[C@H](O)[C@H](C)O1 [Doxorubicin, reference compound]
miR-34a expression after chemotherapeutic drugs (miR-34a [1]): no effect

CNC(=O)c1cc(Oc2ccc(NC(=O)Nc3ccc(Cl)c(C(F)(F)F)c3)cc2)ccn1 [Sorafenib, reference compound]
miR-34a expression after chemotherapeutic drugs (miR-34a [1]): no effect
Body weight (g) initial ([3]; 50 mg/kg group, initial, mean (95% CI)): 20.00(95% CI = 18.76 − 21.24)/ g
Body weight (g) end ([3]; 50 mg/kg, end of 24 d treatment, mean (95% CI)): 24.00(95% CI = 21.22 − 26.78) g
Mice survival (n) initial/end ([3]; 50 mg/kg, gavage once every two days, 24 d): 5/5
Cyclin D1 and Bcl-2 expression in xenografted tumors (Cyclin D1 and Bcl-2): no changes
pri-miR-34a and miR-34a levels in xenografted tumors (miR-34a [4]): no changes
Tumor growth inhibition (%) (HepG2 xenografted tumor; 24 d): 84.22%
Tumor weight (g) (HepG2 xenografted tumor; day 24, mean (95% CI)): 0.186 (95% CI = 0.14 − 0.23)** g
